Laboratory results from patent publication US20150118311A1, “Highly Penetrative Nanocarriers for Treatment of CNS Disease” (priority 2012, published 2015).
Like-named read-outs stand apart in the source and are kept apart here.

Columns and labels:
GS5 cells = experiment: GS5 cell proliferation/viability (MTT, AlamarBlue); type: cell-based, human
BCSCs = type: cell-based, human
GS5-derived tumors = experiment: Survival of nude rats with intracranial GS5 (BCSC) xenografts after CED; type: in vivo; conditions: BCSC xenograft tumors in the rat, FIG. 1C
CD133+ cell population = experiment: Flow cytometry of CD133+ cell population in BCSC culture; type: cell-based, human; conditions: 100 nM drug, 3 days after plating, DI treated culture
U87MG-derived xenografts = experiment: Survival of nude rats with intracranial U87MG xenografts after CED; type: in vivo; conditions: U87MG xenograft
U87MG = experiment: cells; conditions: Homo sapiens, U-87 MG, read-out: IC50, growth of U87MG in vitro
BCSC line PS11 = experiment: Flow cytometry of CD133+ population in PS11; conditions: 1 μM
BCSC sphere formation = experiment: BCSC sphere formation
[1] = read-out: IC50 of candidate drugs on GS5 cells
[2] = Homo sapiens, 72 h, read-out: IC50 of candidate drugs on GS5 cells
[3] = Homo sapiens, 72 h, GS5 cells, three days after treatment, read-out: IC50 of candidate drugs on GS5 cells
[4] = GS5 cells, three days after treatment, read-out: IC50 of candidate drugs on GS5 cells

In the case of `COc1ccc(C[C@H]2NC[C@H](O)[C@H]2OC(C)=O)cc1` [Anisomycin], the IC50 (GS5 cells; [1]) is reported as 0.3 µM and the “performance on in vitro assays against BCSCs” value (BCSCs) is reported as “performed well”.
In the case of `CC(C)C[C@H]1C(=O)N2CCC[C@H]2[C@]2(O)O[C@](NC(=O)[C@@H]3C=C4c5cccc6[nH]c(Br)c(c56)C[C@H]4N(C)C3)(C(C)C)C(=O)N12` [Bromocriptine], the IC50 (GS5 cells; [2]) is reported as 9.1 µM.
For `CN(C)CCC(c1ccc(Cl)cc1)c1ccccn1` (stereo not shown) [Chlorpheniramine], the IC50 (GS5 cells; [3]) was 40.4 µM.
Work on `Cc1ccc2ccc3ccc(C)nc3c2n1` [Neocuproine] yielded an IC50 (GS5 cells; [3]) of 0.2 µM.
In the case of `COc1ccc2c(c1)[nH]c1c(C)nccc12` [Harmine], the IC50 (GS5 cells; [2]) is reported as 19.3 µM.
`Nc1nc(Cl)nc2c1ncn2[C@H]1C[C@H](O)[C@@H](CO)O1` [Cladribine] was tested, and the IC50 (GS5 cells; [3]) was 3.4 µM.
For `C[C@@H]1O[C@@H](O[C@@H]2C=C3CC[C@@H]4[C@H](CC[C@]5(C)[C@@H](c6ccc(=O)oc6)CC[C@]45O)[C@@]3(C)CC2)[C@H](O)[C@H](O)[C@H]1O` [Proscillaridin A], the IC50 (GS5 cells; [1]) was 0.1 µM.
Acriflavine hydrochloride showed an IC50 (GS5 cells; [4]) of 3 µM.
In the case of `CC1=C2N=C(C=C3N=C(C(C)=C4[N-]C(C(CC(N)=O)C4(C)CCC(=O)NCC(C)OP(=O)([O-])OC4C(CO)OC(n5cnc6cc(C)c(C)cc65)C4O)C4(C)N=C1C(CCC(N)=O)C4(C)CC(N)=O)C(CCC(N)=O)C3(C)C)C(CCC(N)=O)C2(C)CC(N)=O.Cl.[Co+3].[OH-]` (stereo not shown) [Hydroxocobalamin hydrochloride], the IC50 (GS5 cells; [1]) is reported as 32.1 µM.
In the case of `CCN1/C(=C/C=C/C=C/c2sc3ccccc3[n+]2CC)Sc2ccccc21` [Dithiazanine iodide], the median survival (GS5-derived tumors) is reported as 177 days, the “decrease of CD133+ cell population” value (CD133+ cell population) is reported as 57% and the IC50 (GS5 cells; [3]) is reported as 0.3 µM. The IC50 (GS5 cells; Homo sapiens, GS5, running text, read-out: IC50, inhibition of GS5 proliferation) was 0.079 µM.
With `O=S(=O)([O-])[O-].[Fe+2]` [Iron(II) sulfate heptahydrate] the IC50 (GS5 cells; [1]) was 32.1 µM.
With `Sc1ncnc2nc[nH]c12` [6-Mercaptopurine monohydrate] the IC50 (GS5 cells; [2]) was 7.8 µM.
Compound `Nc1ccn([C@@H]2O[C@H](CO)[C@@H](O)[C@@H]2O)c(=O)n1` [Cytarabine] has an IC50 (GS5 cells; [3]) of 0.8 µM.
For `CCN(CC)CCNc1ccc(CO)c2sc3ccccc3c(=O)c12` [Hycanthone], the IC50 (GS5 cells; [3]) was 5.6 µM.
In the case of `CC[C@H]1CN2CCc3cc(OC)c(OC)cc3[C@@H]2C[C@@H]1C[C@H]1NCCc2cc(OC)c(OC)cc21` [Emetine], the IC50 (GS5 cells; [3]) is reported as 0.3 µM.
Compound `CN1CCC(Nc2ncc3ncnc(Nc4ccc(F)c(Cl)c4)c3n2)CC1` [Falnidamol] has an IC50 (GS5 cells; [2]) of 22 µM.
In the case of `CC(=O)O[C@H]1C(=O)[C@@]2(C)[C@H]([C@H](OC(=O)c3ccccc3)[C@]3(O)C[C@H](OC(=O)[C@H](O)[C@@H](NC(=O)c4ccccc4)c4ccccc4)C(C)=C1C3(C)C)[C@]1(OC(C)=O)CO[C@@H]1C[C@@H]2O` [paclitaxel], the “survival benefit compared to no treatment” value (U87MG-derived xenografts; CED) is reported as “failed to show a survival benefit”, the median survival (U87MG-derived xenografts; single CED infusion 7 days after inoculation) is reported as 30 days and the IC50 (U87MG) is reported as 0.169 µM.
With `Nc1nc2nc[nH]c2c(=S)[nH]1` [Thioguanine] the IC50 (GS5 cells; [3]) was 4.6 µM.
With `C[C@H]1O[C@@H](O[C@H]2[C@@H](O)C[C@H](O[C@H]3[C@@H](O)C[C@H](O[C@H]4CC[C@@]5(C)[C@H](CC[C@@H]6[C@@H]5C[C@@H](O)[C@]5(C)[C@@H](C7=CC(=O)OC7)CC[C@]65O)C4)O[C@@H]3C)O[C@@H]2C)C[C@H](O)[C@@H]1O` [Digoxin] the “effect on CD133+ population” value (BCSC line PS11) was “decreased the CD133+ population”, the “effect on BCSC sphere formation” value (BCSC sphere formation; 1 μM) was “inhibited BCSC sphere formation” and the “effect on BCSC sphere formation” value (BCSC sphere formation; 5 μM) was “inhibited BCSC sphere formation”. For the same compound, the IC50 (GS5 cells; [2]) was 0.3 µM, the “effect on BCSC proliferation” value (BCSCs) was “inhibited BCSC proliferation” and the “performance on in vitro assays against BCSCs” value (BCSCs) was “performed well”.
For `CCCCCCCCCCCCCCCCOP(=O)([O-])OCC[N+](C)(C)C` [Miltefosine], the IC50 (GS5 cells; [3]) was 27.8 µM.
With `N=C(N)NCC(=O)O` [Glycocyamine] the IC50 (GS5 cells; [3]) was 33.9 µM.
`C[C@H]1C[C@H]2[C@@H]3CCC4=CC(=O)C=C[C@]4(C)[C@@]3(F)[C@@H](O)C[C@]2(C)[C@@]1(O)C(=O)CO` [Betamethasone] gave an IC50 (GS5 cells; [3]) of 25.9 µM.
`S=C(S)N1CCCC1` [Ammonium pyrrolidinedithiocarbamate] showed an IC50 (GS5 cells; [4]) of 3.3 µM.
Compound `CCN(CC)CCCC(C)Nc1c2ccc(Cl)cc2nc2ccc(OC)cc12` (stereo not shown) [Quinacrine] has an IC50 (GS5 cells; [3]) of 2.7 µM.
With `CC1=C(C(=O)O)N2C(=O)[C@@H](NC(=O)[C@H](N)C3=CCC=CC3)[C@H]2SC1` [Cephradine] the IC50 (GS5 cells; [3]) was 38.5 µM.
`CCC(=O)[O-].CCC(=O)[O-].[Ca+2]` [Calcium propionate] showed an IC50 (GS5 cells; [1]) of 29.5 µM.
